The values that follow come from patent US20190051326A1, “Ionic Liquid, Lubricant, and Magnetic Recording Medium” (priority 2016, published 2019).

The nature of data set [1]: Thermal stability, TG/DTA measurement. Conditions: air 200 mL/min, 30° C. to 600° C., heating rate 10° C./min.
Data set [2] is described as follows: Solubility to fluorine-based solvent (Vertrel XF), 1.0/0.5/0.1 parts by mass added. Conditions: Vertrel XF [CF3(CHF)2CF2CF3], 25° C., ultrasonic waves 5 minutes, left 1 day, visual observation; 0.5 and 0.1 parts by mass per 100 parts. As to the method:
Then, the resultant was left to stand for 1 day and solubility thereof was visually observed.
Then, the resultant was left to stand for 1 day and solubility thereof was visually observed, followed by evaluation based on the following evaluation criteria.
[Evaluation Criteria] • 0.5% by mass or more:
When 0.5 parts by mass of the ionic liquid was added, dissolution was found. • 0.1% by mass or more but less than 0.5% by mass:
When 0.5 parts by mass of the ionic liquid was added, no dissolution was found. However, when 0.1 parts by mass of the ionic liquid was added, dissolution was found. • Less than 0.1% by mass:
When 0.5 parts by mass of the ionic liquid was added, no dissolution was found. Moreover, when 0.1 parts by mass of the ionic liquid was added, no dissolution was found.

Consider `CCCCCCCCCCCCCCCCCCC1CCCCN2CCCN=C12.O=S1(=O)NS(=O)(=O)C(F)(F)C(F)(F)C1(F)F` (centres unmarked) [Comparative Example 4A, hexafluorocyclopropane-1,3-bis(sulfonyl)imide-6-octadecyl-1,8-diazabicyclo[5.4.0]-7-undecenium, reference compound], for which, in data set [1], the “Weight reduction temperature 5%” value came to 346.3 °C, the “Weight reduction temperature 10%” value amounted to 384.1 °C and the “Weight reduction temperature 20%” value is 414.0 °C. Further, the Fluorine-based solvent solubility entry in data set [2] was “Less than 0.1% by % by mass”.

Regarding “pentadecafluorooctanoic acid octadecylammonium [Comparative Example 5A, reference compound]”, in data set [1], the “Weight reduction temperature 5%” value was 206.9 °C, the “Weight reduction temperature 10%” value was found to be 215.8 °C and the “Weight reduction temperature 20%” value was found to be 223.4 °C. In addition, in data set [2], the Fluorine-based solvent solubility result is on record as “Less than 0.1% by % by mass”.
